According to ChEMBL document CHEMBL4507292 (2021):

Columns and labels:
[1] = biological target: GABA-A receptor; anion channel (Rattus norvegicus) (UniProt O09028+P15431+P18506+P18508+P19969+P20236+P23574+P23576+P28471+P28473+P30191+P62813+P63079+P63138+Q91ZM7+Q9ES14); experiment: Inhibition of GABAA, Muscimol, Central at 10 µM in the Eurofins-Panlabs radioligand binding assay (Eurofins_assay_226500); assay type: protein-complex assay; conditions: Compound concentration 10.0 uM
[2] = biological target: Glutamate receptor ionotropic, kainate (Rattus norvegicus) (UniProt P22756+Q01812+P42260+P42264+Q63273); experiment: Inhibition of Glutamate, Kainate at 10 µM in the Eurofins-Panlabs radioligand binding assay (Eurofins_assay_232700); conditions: Compound concentration 10.0 uM
[3] = species on record: Oryctolagus cuniculus; experiment: Inhibition of Purinergic P2X at 10 µM in the Eurofins-Panlabs radioligand binding assay (Eurofins_assay_268700); assay type: protein assay; conditions: Compound concentration 10.0 uM
[4] = biological target: monoamine oxidase A (MAO-A) (Homo sapiens, UniProt P21397); experiment: Inhibition of Monoamine Oxidase MAO-A at compound concentration of 10.0 uM in the Eurofins-Panlabs enzyme assay (Eurofins_assay_140010); set-up: substrate with concentration 50 uM Kynuramine, incubation time 60 min, incubation temperature 37 C; conditions: human recombinant MAO-A expressed in insect Hi5 cells, probe kynuramine, 50 uM, compound concentration 10 uM
[5] = biological target: T1, Alpha-2C adrenergic receptor (Homo sapiens) (UniProt P18825); experiment: (§1) Adrenergic alpha2C Eurofins-Panlabs radioligand binding assay; set-up: ligand concentration 1 nM, non-specific ligand with concentration 10 µM WB-4101, incubation time 60 min, incubation temperature 25 °C
T1 sequence (whole entry): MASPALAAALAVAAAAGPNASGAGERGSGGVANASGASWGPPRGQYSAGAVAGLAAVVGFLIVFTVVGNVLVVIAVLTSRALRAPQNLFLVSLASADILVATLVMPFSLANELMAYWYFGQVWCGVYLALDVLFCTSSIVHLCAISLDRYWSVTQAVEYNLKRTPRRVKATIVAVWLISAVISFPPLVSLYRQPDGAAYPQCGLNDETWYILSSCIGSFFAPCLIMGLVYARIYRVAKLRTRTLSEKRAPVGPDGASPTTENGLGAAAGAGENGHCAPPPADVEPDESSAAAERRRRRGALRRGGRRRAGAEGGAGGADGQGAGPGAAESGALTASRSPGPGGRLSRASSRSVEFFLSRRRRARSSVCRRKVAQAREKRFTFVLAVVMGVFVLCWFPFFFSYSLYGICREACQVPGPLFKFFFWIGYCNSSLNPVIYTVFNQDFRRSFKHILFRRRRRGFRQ

[6] = biological target: Alpha-2C adrenergic receptor (Homo sapiens, UniProt P18825); experiment: as §1; set-up: ligand concentration 1 nM, non-specific ligand with concentration 10 µM WB-4101, incubation time 60 min, incubation temperature 25 °C
[7] = biological target: C-X-C chemokine receptor type 2 (Homo sapiens) (UniProt P25025); experiment: Inhibition of Chemokine CXCR2 (IL-8RB) at 10 µM in the Eurofins-Panlabs radioligand binding assay (Eurofins_assay_244500)
Sequence of C-X-C chemokine receptor type 2 (Homo sapiens) (P25025 whole entry): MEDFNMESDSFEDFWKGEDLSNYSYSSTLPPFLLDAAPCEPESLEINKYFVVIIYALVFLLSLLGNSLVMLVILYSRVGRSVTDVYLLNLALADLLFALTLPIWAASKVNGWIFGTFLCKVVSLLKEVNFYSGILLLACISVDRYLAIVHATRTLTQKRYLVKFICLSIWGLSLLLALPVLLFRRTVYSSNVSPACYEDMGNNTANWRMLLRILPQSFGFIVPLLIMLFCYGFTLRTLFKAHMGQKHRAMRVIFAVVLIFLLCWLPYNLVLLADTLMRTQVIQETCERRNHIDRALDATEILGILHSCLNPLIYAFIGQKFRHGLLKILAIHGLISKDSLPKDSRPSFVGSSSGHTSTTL

[8] = biological target: Caspase-8 (Homo sapiens) (UniProt Q14790); experiment: Peptidase, CASP8 (Caspase 8) Eurofins-Panlabs enzyme assay; conditions: concentration not given here
Sequence of Caspase-8 (Homo sapiens) (Q14790 217-374 limits assumed): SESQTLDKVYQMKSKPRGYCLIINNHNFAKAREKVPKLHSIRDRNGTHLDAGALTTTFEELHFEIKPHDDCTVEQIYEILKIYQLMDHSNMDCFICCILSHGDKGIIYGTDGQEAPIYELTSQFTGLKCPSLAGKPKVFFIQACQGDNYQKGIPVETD
Sequence of Caspase-8 (Homo sapiens) (Q14790 385-479 limits assumed): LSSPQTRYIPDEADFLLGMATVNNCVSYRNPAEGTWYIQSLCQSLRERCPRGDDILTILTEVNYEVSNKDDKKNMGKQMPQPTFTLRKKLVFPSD

[9] = species on record: Rattus norvegicus; experiment: Protein Serine/Threonine Kinase, PKC, Non-Selective Eurofins-Panlabs enzyme assay; conditions: Compound concentration 10.0 uM
[10] = biological target: Peroxisome proliferator-activated receptor alpha (Homo sapiens) (UniProt Q07869); experiment: PPARalpha Eurofins-Panlabs radioligand binding assay; conditions: Compound concentration 10.0 uM
Sequence of Peroxisome proliferator-activated receptor alpha (Homo sapiens) (Q07869 whole entry): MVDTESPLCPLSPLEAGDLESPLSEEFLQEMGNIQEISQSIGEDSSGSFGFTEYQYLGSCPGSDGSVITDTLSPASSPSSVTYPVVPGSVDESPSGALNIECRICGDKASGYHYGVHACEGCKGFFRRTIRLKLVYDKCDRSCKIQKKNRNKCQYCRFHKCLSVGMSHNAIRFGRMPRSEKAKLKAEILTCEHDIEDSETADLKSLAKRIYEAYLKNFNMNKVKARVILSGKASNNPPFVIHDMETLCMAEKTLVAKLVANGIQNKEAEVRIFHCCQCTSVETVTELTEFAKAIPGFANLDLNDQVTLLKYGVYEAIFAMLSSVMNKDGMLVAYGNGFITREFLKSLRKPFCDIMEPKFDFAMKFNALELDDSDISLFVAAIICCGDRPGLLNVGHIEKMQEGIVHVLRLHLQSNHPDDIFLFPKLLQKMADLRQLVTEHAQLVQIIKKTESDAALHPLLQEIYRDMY

[11] = biological target: Peroxisome proliferator-activated receptor gamma (Homo sapiens) (UniProt P37231); experiment: PPARgamma Eurofins-Panlabs radioligand binding assay; set-up: ligand concentration 5 nM, non-specific ligand with concentration 0.5 µM L-797773, incubation time 18 h, incubation temperature 15 °C; conditions: Compound concentration 10.0 uM
[12] = biological target: Polyunsaturated fatty acid 5-lipoxygenase (Homo sapiens) (UniProt P09917); experiment: Lipoxygenase 5-LO Eurofins-Panlabs enzyme assay; conditions: Compound concentration 10.0 uM
[13] = biological target: Caspase-6 (Homo sapiens) (UniProt P55212); experiment: Peptidase, CASP6 (Caspase 6) Eurofins-Panlabs enzyme assay; set-up: substrate with concentration; conditions: Compound concentration 10.0 uM
Sequence of Caspase-6 (Homo sapiens) (P55212 24-179 limits assumed): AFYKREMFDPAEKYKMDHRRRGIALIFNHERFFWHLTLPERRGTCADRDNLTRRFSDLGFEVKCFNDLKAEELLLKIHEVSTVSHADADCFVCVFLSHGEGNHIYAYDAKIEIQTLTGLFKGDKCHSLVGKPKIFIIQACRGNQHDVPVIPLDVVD
Sequence of Caspase-6 (Homo sapiens) (P55212 194-293 limits assumed): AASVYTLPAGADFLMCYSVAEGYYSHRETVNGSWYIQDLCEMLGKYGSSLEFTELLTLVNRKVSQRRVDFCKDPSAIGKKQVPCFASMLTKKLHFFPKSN

[14] = biological target: Endothelin-converting enzyme 1 (Homo sapiens) (UniProt P42892); experiment: Peptidase, Endothelin Converting Enzyme-1 (ECE-1) Eurofins-Panlabs enzyme assay; conditions: Compound concentration 10.0 uM
Sequence of Endothelin-converting enzyme 1 (Homo sapiens) (P42892 whole entry): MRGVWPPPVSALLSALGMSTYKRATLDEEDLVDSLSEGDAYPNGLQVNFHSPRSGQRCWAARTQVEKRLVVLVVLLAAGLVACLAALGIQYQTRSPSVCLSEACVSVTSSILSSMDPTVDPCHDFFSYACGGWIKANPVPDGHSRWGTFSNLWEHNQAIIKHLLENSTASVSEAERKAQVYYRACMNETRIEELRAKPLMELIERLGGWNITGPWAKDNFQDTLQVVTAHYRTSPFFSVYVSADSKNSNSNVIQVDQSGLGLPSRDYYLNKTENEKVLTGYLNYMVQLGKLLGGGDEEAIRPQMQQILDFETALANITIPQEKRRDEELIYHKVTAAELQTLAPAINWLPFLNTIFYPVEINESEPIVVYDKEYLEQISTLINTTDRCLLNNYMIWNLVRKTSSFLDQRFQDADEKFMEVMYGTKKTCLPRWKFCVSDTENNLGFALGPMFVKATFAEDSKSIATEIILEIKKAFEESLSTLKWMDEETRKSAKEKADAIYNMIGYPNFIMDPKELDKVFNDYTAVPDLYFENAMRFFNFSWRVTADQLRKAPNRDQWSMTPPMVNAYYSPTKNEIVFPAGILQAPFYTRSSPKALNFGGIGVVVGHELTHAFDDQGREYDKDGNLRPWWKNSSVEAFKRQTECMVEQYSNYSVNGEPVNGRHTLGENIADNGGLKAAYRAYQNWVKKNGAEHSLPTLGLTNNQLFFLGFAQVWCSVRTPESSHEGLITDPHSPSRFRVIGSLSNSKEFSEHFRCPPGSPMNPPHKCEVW

[15] = biological target: Macrophage metalloelastase (Homo sapiens) (UniProt P39900); experiment: Peptidase, Matrix Metalloproteinase-12 (MMP-12) Eurofins-Panlabs enzyme assay; conditions: Compound concentration 10.0 uM
Sequence of Macrophage metalloelastase (Homo sapiens) (P39900 106-470 limits assumed): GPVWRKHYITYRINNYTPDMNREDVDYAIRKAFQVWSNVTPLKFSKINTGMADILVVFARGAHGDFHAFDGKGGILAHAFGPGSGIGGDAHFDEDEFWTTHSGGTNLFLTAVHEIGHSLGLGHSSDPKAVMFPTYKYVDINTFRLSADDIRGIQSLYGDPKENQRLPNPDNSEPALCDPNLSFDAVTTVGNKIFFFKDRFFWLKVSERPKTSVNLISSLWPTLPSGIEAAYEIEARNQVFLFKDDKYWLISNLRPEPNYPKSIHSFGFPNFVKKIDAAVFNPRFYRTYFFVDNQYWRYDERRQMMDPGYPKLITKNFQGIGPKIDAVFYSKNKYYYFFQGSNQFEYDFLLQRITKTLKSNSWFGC

[16] = biological target: Phosphodiesterase PDE1 (Bos taurus) (UniProt Q01061+P14100+A0A3Q1MCV4); experiment: (§2) Phosphodiesterase PDE1 Eurofins-Panlabs enzyme assay; assay type: protein assay; set-up: substrate with concentration [3H] cAMP + cAMP, incubation time 20 min, incubation temperature 25 °C
[17] = biological target: Phosphodiesterase PDE1 (Bos taurus, UniProt Q01061+P14100+A0A3Q1MCV4); experiment: as §2; assay type: protein assay; set-up: substrate with concentration [3H] cAMP + cAMP, incubation time 20 min, incubation temperature 25 °C
[18] = biological target: Protein kinase C alpha type (Homo sapiens) (UniProt P17252); experiment: Inhibition of Protein Serine/Threonine Kinase, PRKCA (PKCα) at 10 µM in the Eurofins-Panlabs enzyme assay (Eurofins_assay_180010); set-up: substrate with concentration Histone, incubation time 10 min, incubation temperature 25 °C; conditions: Compound concentration […]
[19] = biological target: Vascular endothelial growth factor receptor 1 (Homo sapiens) (UniProt P17948); experiment: Protein Tyrosine Kinase, FLT1 (VEGFR-1) Eurofins-Panlabs enzyme assay; conditions: Compound concentration 10.0 uM
[20] = Protein Tyrosine Kinase, pp60 c-SRC Eurofins-Panlabs enzyme assay
[21] = biological target: Type-2 angiotensin II receptor (Homo sapiens) (UniProt P50052); experiment: Angiotensin AT2 Eurofins-Panlabs radioligand binding assay; assay type: protein assay; conditions: Compound concentration 10.0 uM
Sequence of Type-2 angiotensin II receptor (Homo sapiens) (P50052 whole entry): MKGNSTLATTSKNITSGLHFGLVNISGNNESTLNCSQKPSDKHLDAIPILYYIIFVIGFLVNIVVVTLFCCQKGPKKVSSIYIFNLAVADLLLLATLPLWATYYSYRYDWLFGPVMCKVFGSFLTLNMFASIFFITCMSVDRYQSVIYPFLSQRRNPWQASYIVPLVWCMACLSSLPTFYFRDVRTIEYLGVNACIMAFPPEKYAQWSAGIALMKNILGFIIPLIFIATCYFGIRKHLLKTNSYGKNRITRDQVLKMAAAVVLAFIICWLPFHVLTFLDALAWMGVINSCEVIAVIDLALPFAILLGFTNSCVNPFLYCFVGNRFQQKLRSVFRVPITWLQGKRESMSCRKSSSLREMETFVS

[22] = species on record: Homo sapiens; experiment: Estrogen ERbeta Eurofins-Panlabs radioligand binding assay; conditions: Compound concentration 10.0 uM
[23] = biological target: Prostaglandin E2 receptor EP4 subtype (Homo sapiens) (UniProt P35408); experiment: Prostanoid EP4 Eurofins-Panlabs radioligand binding assay; set-up: ligand concentration 0.5 nM; conditions: Compound concentration 10.0 uM
[24] = species on record: Rattus norvegicus; experiment: Serotonin (5-Hydroxytryptamine) 5-HT2, Non-Selective Eurofins-Panlabs radioligand binding assay; assay type: protein assay; conditions: Compound concentration 10.0 uM
[25] = biological target: Somatostatin receptor type 2 (Homo sapiens) (UniProt P30874); experiment: Somatostatin sst2 Eurofins-Panlabs radioligand binding assay; set-up: ligand concentration 0.1 nM; conditions: Compound concentration 10.0 uM
Sequence of Somatostatin receptor type 2 (Homo sapiens) (P30874 whole entry): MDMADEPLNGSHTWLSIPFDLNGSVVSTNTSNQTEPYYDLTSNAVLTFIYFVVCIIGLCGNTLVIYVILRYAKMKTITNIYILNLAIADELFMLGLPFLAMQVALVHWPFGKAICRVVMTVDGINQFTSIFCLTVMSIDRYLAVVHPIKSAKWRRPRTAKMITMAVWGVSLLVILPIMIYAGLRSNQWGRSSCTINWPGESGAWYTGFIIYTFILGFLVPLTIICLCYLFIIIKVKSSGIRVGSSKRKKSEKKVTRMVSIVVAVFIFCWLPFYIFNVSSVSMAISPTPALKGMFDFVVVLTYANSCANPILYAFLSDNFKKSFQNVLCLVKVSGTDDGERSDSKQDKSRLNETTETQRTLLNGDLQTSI

[26] = biological target: Somatostatin receptor type 3 (Homo sapiens) (UniProt P32745); experiment: Somatostatin sst3 Eurofins-Panlabs radioligand binding assay; conditions: concentration not given here
Sequence of Somatostatin receptor type 3 (Homo sapiens) (P32745 whole entry): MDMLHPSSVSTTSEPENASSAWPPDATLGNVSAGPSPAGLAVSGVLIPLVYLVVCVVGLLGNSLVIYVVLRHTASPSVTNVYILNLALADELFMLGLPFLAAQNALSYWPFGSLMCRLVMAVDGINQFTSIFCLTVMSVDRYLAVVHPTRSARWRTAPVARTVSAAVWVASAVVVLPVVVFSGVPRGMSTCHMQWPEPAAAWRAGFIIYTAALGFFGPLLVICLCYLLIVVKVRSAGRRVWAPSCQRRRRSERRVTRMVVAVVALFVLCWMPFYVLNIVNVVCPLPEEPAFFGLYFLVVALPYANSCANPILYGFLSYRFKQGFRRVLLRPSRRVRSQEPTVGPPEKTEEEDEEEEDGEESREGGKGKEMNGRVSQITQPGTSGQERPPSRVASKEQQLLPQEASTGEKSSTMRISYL

[27] = biological target: Sodium-dependent serotonin transporter (Homo sapiens, UniProt P31645); experiment: Transporter, Serotonin (5- Hydroxytryptamine) (SERT) Eurofins-Panlabs radioligand binding assay; set-up: ligand concentration 0.15 nM, non-specific ligand with concentration 10 µM Imipramine, incubation time 3 h, incubation temperature 4 °C
[28] = biological target: SNF-related serine/threonine-protein kinase (Homo sapiens) (UniProt Q9NRH2); conditions: Compound concentration 1000.0 nM
Sequence of SNF-related serine/threonine-protein kinase (Homo sapiens) (Q9NRH2 whole entry): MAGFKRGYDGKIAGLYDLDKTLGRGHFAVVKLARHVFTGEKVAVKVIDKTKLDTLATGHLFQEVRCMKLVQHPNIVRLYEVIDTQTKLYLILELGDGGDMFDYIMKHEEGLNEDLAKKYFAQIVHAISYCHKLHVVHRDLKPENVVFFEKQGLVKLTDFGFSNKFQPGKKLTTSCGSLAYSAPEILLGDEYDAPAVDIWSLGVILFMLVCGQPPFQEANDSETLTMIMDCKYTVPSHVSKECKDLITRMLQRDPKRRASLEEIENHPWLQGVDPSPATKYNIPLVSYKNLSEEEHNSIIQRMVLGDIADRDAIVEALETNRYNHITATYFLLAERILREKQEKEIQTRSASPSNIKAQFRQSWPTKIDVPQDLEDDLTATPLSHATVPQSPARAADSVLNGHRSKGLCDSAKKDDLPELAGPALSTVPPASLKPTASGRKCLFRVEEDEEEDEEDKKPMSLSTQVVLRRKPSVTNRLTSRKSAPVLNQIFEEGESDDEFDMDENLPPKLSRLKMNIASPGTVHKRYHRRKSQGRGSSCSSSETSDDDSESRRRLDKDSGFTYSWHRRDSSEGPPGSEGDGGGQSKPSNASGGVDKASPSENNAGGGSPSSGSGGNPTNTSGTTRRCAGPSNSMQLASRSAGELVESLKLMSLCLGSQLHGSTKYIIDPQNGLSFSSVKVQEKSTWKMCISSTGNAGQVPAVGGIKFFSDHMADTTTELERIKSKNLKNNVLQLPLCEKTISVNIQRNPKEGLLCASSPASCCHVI

[29] = biological target: D(2) dopamine receptor (Homo sapiens) (UniProt P14416); conditions: Compound concentration 10.0 uM
Sequence of D(2) dopamine receptor (Homo sapiens) (P14416 whole entry): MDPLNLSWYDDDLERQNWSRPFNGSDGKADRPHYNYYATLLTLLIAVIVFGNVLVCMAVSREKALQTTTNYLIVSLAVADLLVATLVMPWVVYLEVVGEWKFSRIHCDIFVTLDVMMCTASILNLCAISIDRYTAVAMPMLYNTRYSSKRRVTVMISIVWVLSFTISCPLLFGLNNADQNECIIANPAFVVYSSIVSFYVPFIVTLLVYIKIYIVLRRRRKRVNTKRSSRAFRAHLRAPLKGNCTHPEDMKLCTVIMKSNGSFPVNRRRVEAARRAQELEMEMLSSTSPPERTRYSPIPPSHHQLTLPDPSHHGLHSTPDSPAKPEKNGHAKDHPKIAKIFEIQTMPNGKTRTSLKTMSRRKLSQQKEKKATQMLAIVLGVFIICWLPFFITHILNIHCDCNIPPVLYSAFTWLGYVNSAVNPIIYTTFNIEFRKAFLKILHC

[30] = biological target: Histamine H1 receptor (Homo sapiens) (UniProt P35367); conditions: Compound concentration 10.0 uM
[31] = biological target: Mu-type opioid receptor (Homo sapiens) (UniProt P35372); conditions: Compound concentration 10.0 uM

## O=C(O)c1cc(-c2ccc(C3CCNCC3)cc2)c2ccc(-c3ccc(C(F)(F)F)cc3)cc2c1 [PPTN]
[1]
  inhibition: 12%
[2]
  inhibition: -1%
[3]
  inhibition: 14%
[4]
  inhibition at 60 min, 10 µM: 22% (not active)
[5]; Compound concentration 0.01 uM
  inhibition: -4%
[5]; Compound concentration 0.1 uM
  inhibition: -2%
[5]; Compound concentration 1.0 uM
  inhibition: 6%
[5]; Compound concentration 10.0 uM
  inhibition: 63%
[6]
  IC50: 6.88 µM
  Ki: 1 µM
[7]
  inhibition: 2%
[8]
  inhibition: 7%
[9]
  inhibition: -5%
[10]
  inhibition: 15%
[11]
  inhibition: 4%
[12]
  inhibition: -9%
[13]
  inhibition: -8%
[14]
  inhibition: 12%
[15]
  inhibition: -1%
[16]; Compound concentration 0.1 uM
  inhibition: -8%
[16]; Compound concentration 1.0 uM
  inhibition: -5%
[16]; Compound concentration 10.0 uM
  inhibition: 51%
[16]; Compound concentration 100.0 uM
  inhibition: 70%
[17]
  IC50: 17.6 µM
[18]
  inhibition: 29%
[19]
  inhibition: -2%
[20]
  IC50: 9.02 µM
[21]
  inhibition: 11%
[22]
  inhibition: 1%
[23]
  inhibition: 37%
[24]
  inhibition: 0%
[25]
  inhibition: 29%
[26]
  inhibition: 35%
[27]
  IC50: 9.47 µM
  Ki: 5.03 µM
[27]; Compound concentration 0.01 uM
  inhibition: -7%
[27]; Compound concentration 0.1 uM
  inhibition: -9%
[27]; Compound concentration 1.0 uM
  inhibition: -6%
[27]; Compound concentration 10.0 uM
  inhibition: 58%
[28]
  residual activity: 71%
[29]
  inhibition: 28%
[30]
  inhibition: -1%
[31]
  inhibition: -1%
